Results taken from patent publication US5853699A, “Use of tetra azacycle complexes as x-ray diagnostic agents for the liver and gallbladder” (priority 1995, dated 1998).
“And” between values parts separate entries of the source, which are not always exact repeats. Equal entries are not always repeated. Where two headings read alike, the source gives them in different places.

Assays:
[1] = density values of samples measured in a water phantom in a computer tomograph (137 kV, 100 mA); type: physicochemical
Description: 3,6,9-Triaza-3,6,9-tris-(carboxymethyl)-4-(4-ethoxybenzyl)-undecanedioic acid
Disodium salt was complexed with different X-ray-absorbing metal ions and then in the case of differing concentration, the density values of the samples were measured in a water phantom since it approximately corresponded in dimensions to those of a human abdomen.

mice = experiment: acute toxicity (LD50) after one-time intravenous administration to mice; type: in vivo, mouse (NMRI (SPF)); settings: mice (NMRI), 2 ml/minutes, deaths up to 7 days
Description: Study of acute toxicity (LD50) after one-time intravenous administration to mice
The contrast medium to be tested was administered to the mice in individual restraining cages (strain: NMRI (SPF); cultivator: Schering; average weight: 20 g; same sex distribution) into one of the caudal veins at a rate of 2 ml/minutes and at different dosage levels. The number of animals that died up to a fixed time was determined (3 hours, 24 hours, 3 days and 7 days).

[2] = compatibility (overall condition, vital parameters, laboratory analysis of serum and urine) in patients (Example 19); type: in vivo, human
Description: Fifteen human patients with known liver metastases were examined in the liver-CT 10 minutes, 60 minutes and (N=5) 120 minutes after intravenous infusion of 0.2, 0.35 or 0.5 mmol/kg of Gd-EOB-DTPA (see Example 16).
Gd-EOB-DTPA ([…]) was administered intravenously in an intravenous drip in the arm vein. The infusion time was 20 minutes for the dosages of 0.2 and 0.35 mmol/kg and 30 minutes for the maximum dose of 0.5 mmol/kg.
The compatibility of Gd-EOB-DTPA was determined by determining the overall condition, the recording of vital parameters and a laboratory analysis of serum and urine parameters.

healthy liver parenchyma = experiment: density enhancement of the healthy liver parenchyma in CT after infusion, patients with liver metastases (Example 16); type: in vivo, human; settings: 0.35 mmol/kg, 0.25 molar solution, individual patients 1-5 (one line per patient), disodium salt
Description: Density enhancement of the healthy liver parenchyma 10 and 60 minutes after infusion of a 0.25 molar solution of the gadolinium(III) complex of the 3,6,9-triaza-3,6,9-tris(carboxymethyl)-4-(4-ethoxybenzyl)-undecanedioic acid disodium salt (Gd-EOB-DTPA, described in Example 8c of EP 0405704) in the case of 5 human patients with liver metastases in a dose of 0.35 mmol/kg in Houndsfield units (HU). This dose corresponds to about 16 g of the complex per 70 kg of patient.

liver metastases = experiment: liver CT of human patients with known liver metastases (Example 19); type: in vivo
Description: Gd-EOB-DTPA ([…]) was administered intravenously in an intravenous drip in the arm vein. The infusion time was 20 minutes for the dosages of 0.2 and 0.35 mmol/kg and 30 minutes for the maximum dose of 0.5 mmol/kg. […] Exclusion criteria for the patients were: […] The entire liver was measured within 20-30 seconds of a pause in breathing. The table feed rate was 8 mm/sec, the collimation 8 mm. Using a basis of pre-contrast and post-contrast images, two independent observers evaluated the number and size of the metastases qualitatively (excellent, good, moderate, minimal, no improvement) and quantitatively (measurement of the Houndsfield units).

liver [3] = settings: mouse; cited from earlier work
liver [4] = settings: dog; cited from earlier work
liver [5] = settings: monkey; cited from earlier work
liver [6] = settings: human, dose corresponding to 360 mg of iodine/kg; cited from earlier work
liver [7] = settings: cited from earlier work; for concentration in the liver (fold), at 50 μg of iodine/ml: 50 μg of iodine/ml of plasma; for concentration in the liver versus plasma, at 500 μg of iodine/ml: 500 μg of iodine/ml of plasma
liver [8] = settings: human, maximum compatible dose corresponding to about 7 g of iodine/70 kg; cited from earlier work
[9] = humans; cited from earlier work
[10] = 0.2, 0.35 or 0.5 mmol/kg i.v. infusion

## CCOc1ccc(CC(CN(CCN(CC(=O)[O-])CC(=O)[O-])CC(=O)[O-])N(CC(=O)[O-])CC(=O)[O-])cc1.[Dy+3].[Na+].[Na+] (stereo not drawn) [Dy]
[1]
  density (HU ± SD), 50 mmol/L: 226 HU
  density (HU ± SD), 500 mmol/L: 1840 HU

## CCOc1ccc(CC(CN(CCN(CC(=O)[O-])CC(=O)[O-])CC(=O)[O-])N(CC(=O)[O-])CC(=O)[O-])cc1.[Er+3].[Na+].[Na+] (stereo not drawn) [Er]
[1]
  density (HU ± SD), 50 mmol/L: 254 HU
  density (HU ± SD), 500 mmol/L: 1955 HU

## CCOc1ccc(CC(CN(CC(=O)[O-])CC(Cc2ccc(OCC)cc2)N(CC(=O)[O-])CC(=O)[O-])N(CC(=O)[O-])CC(=O)[O-])cc1.[Na+].[Na+].[Yb+3] (stereo not drawn) [Example 4e, Ytterbium complex of the disodium salt of 3,6,9-triaza-3,6,9-tris-(carboxymethyl)-4,8-bis-(4-ethoxybenzyl)-undecanedioic acid]
mice
  LD50: approximately 15 mmol/kg of body weight

## CCOc1ccc(CC(CN(CCN(CC(=O)[O-])CC(=O)[O-])CC(=O)[O-])N(CC(=O)[O-])CC(=O)[O-])cc1.[Gd+3].[Na+].[Na+] (stereo not drawn) [Gd-EOB-DTPA, gadolinium(III) complex of the 3,6,9-triaza-3,6,9-tris(carboxymethyl)-4-(4-ethoxybenzyl)-undecanedioic acid disodium salt]
[2]; 0.2, 0.35 or 0.5 mmol/kg
  other side effects: nausea and a sensation of pressure in the epigastric region
[2]; 0.2, 0.35 or 0.5 mmol/kg i.v. infusion, 15 patients
  general compatibility: good
[2]; 0.2, 0.35 or 0.5 mmol/kg, 15 patients
  mild or moderate side effects observed (number): four
[2]; persisted for a few seconds or minutes
  burning sensation at the infusion site or retrograde therefrom (cases): two
[2]; probably caused by the liver metastases
  slight increases of aspartate transferase and alaninamino transferase (patients): three
[2]; serum and urine parameters
  evaluation of the laboratory parameters: no precise trend
Healthy liver parenchyma; 10 minutes after infusion
  Density enhancement of the healthy liver parenchyma, 10 minutes p. inf.: 19 HU and 12 HU and 10 HU and 18 HU and 15 HU
Healthy liver parenchyma; 60 minutes after infusion
  Density enhancement of the healthy liver parenchyma, 60 minutes p. inf.: 26 HU and 25 HU and 17 HU and 32 HU
[1]
  density (HU ± SD), 50 mmol/L: 218 HU
  density (HU ± SD), 500 mmol/L: 1680 HU
Liver metastases; 0.2, 0.35 and 0.5 mmol/kg
  visualization of the metastases, all dose groups: improved
Liver metastases; [10]
  CT density of the healthy liver: dose-dependent increase
  CT density of the metastases: unchanged
Liver metastases; 0.35 and 0.5 mmol/kg
  visualization of the metastases, two upper dose groups: excellent
Liver metastases; after i.v. infusion
  visualization of the gallbladder and the bile ducts: possible
Liver metastases; maximum dose (0.5 mmol/kg)
  additional metastases discovered, on the average: two
Liver metastases; maximum dose, decreased from 20.3 mm
  average size of the smallest metastases found: 16.6 mm
Liver metastases; one patient, left lobe of the liver, previously not found
  diameter of additional lesion detected: 7 mm
Liver metastases; summary statement
  summary as liver or gallbladder contrast medium for CT: well-tolerated and effective

## CCOc1ccc(CC(CN(CCN(CC(=O)[O-])CC(=O)[O-])CC(=O)[O-])N(CC(=O)[O-])CC(=O)[O-])cc1.[Ho+3].[Na+].[Na+] (stereo not drawn) [Ho]
[1]
  density (HU ± SD), 50 mmol/L: 221 HU
  density (HU ± SD), 500 mmol/L: 1890 HU

## CNC(=O)c1c(I)c(NC(=O)COCC(=O)N(C)c2c(I)cc(I)c(C(=O)O)c2I)c(I)c(C(=O)O)c1I [SH L 433]
Liver [3]
  enhancement of the liver: > 40 HU
Liver [4]
  enhancement of the liver: > 40 HU
Liver [5]
  enhancement of the liver: > 40 HU
Liver [6]
  enhancement of the liver: < 10 HU

## CCOc1ccc(CC(CN(CCN(CC(=O)[O-])CC(=O)[O-])CC(=O)[O-])N(CC(=O)[O-])CC(=O)[O-])cc1.[Na+].[Na+].[Tb+3] (stereo not drawn) [Tb]
[1]
  density (HU ± SD), 50 mmol/L: 228 HU
  density (HU ± SD), 500 mmol/L: 1760 HU

## CCOc1ccc(CC(CN(CCN(CC(=O)[O-])CC(=O)[O-])CC(=O)[O-])N(CC(=O)[O-])CC(=O)[O-])cc1.[Na+].[Na+].[Yb+3] (stereo not drawn) [Yb, Ytterbium complex of the disodium salt of 3,6,9-triaza-3,6,9-tris-(carboxymethyl)-4-(4-ethoxybenzyl)-undecanedioic acid]
[1]
  density (HU ± SD), 50 mmol/L: 252 HU
  density (HU ± SD), 500 mmol/L: 1980 HU

## O=C(COCC(=O)Nc1c(I)cc(I)c(C(=O)O)c1I)Nc1c(I)cc(I)c(C(=O)O)c1I [ioglycamate]
Liver [7]
  concentration in the liver (fold), at 5 μg of iodine per ml of plasma: 5 -fold
  concentration in the liver (fold), at 50 μg of iodine/ml: ~2 -fold
  concentration in the liver versus plasma, at 500 μg of iodine/ml: considerably lower than in the plasma

## O=C(COCCOCCOCC(=O)Nc1c(I)cc(I)c(C(=O)O)c1I)Nc1c(I)cc(I)c(C(=O)O)c1I [iotroxinate]
Liver [8]
  enhancement in the liver: 15 HU
[9]
  excreted via the bile ducts: about 90%
Liver [7]
  concentration in the liver (fold), at 5 μg of iodine per ml of plasma: 5 -fold
  concentration in the liver (fold), at 50 μg of iodine/ml: ~2 -fold
  concentration in the liver versus plasma, at 500 μg of iodine/ml: considerably lower than in the plasma
